How the values were obtained:
SaMhqR [1] = target: T1, SaMhqR (Staphylococcus aureus, UniProt W8U802); test: crystal structure (co-crystallized with MHQ, oxidized to MBQ) and ITC; format: binding
T1 construct: gene ACR79_11795; full-length (144 amino acids), C-terminal His-tag, homodimer

SaMhqR [2] = target: T1, SaMhqR; test: ITC; format: binding

T1 sequence (W8U802 entry or part of it): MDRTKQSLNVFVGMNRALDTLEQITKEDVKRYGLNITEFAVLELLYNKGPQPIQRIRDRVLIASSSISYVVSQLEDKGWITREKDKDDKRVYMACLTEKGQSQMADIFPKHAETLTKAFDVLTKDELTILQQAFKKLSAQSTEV

Structure (SMILES)	Kd (SaMhqR [1]) [µM]	Kd (SaMhqR [2]) [µM]
CC1=CC(=O)C=CC1=O [MBQ, 2-methylbenzoquinone]	~3	–
Cc1cc(O)ccc1O [MHQ, 2-methylhydroquinone]	–	~6
